Results reported in patent EP0726261A1, “Herbidical 1,2,4 thiadiazoles” (American Cyanamid Company, priority 1995, dated 1996).

Legend:
Assay type in all cases: in vivo
Avena fatua [1] = experiment: Herbicidal activity, preemergence test (Example 66); parameters: key: A rating of 0 indicates growth as untreated control; a rating of 9 indicates death; details: pre; 1000 g/ha; assessed visually twenty days after spraying
Protocol: (§1) To evaluate their herbicidal activity, compounds according to the invention are tested using a representative range of plants: ZEAMX Zea mays ORYSA Oryza sativa GLXMA Glycine max BEAVA Beta vulgaris LIUUT Linum usitatissimum AVEFA Avena fatua ECHCG Echinochloa crus-galli SINAL Sinapsis alba
(§2) The tests fall into two categories, preemergence and postemergence. The preemergence tests involve spraying a liquid formulation of the compound onto the soil in which the seeds of the plant species mentioned above have recently been sown. The postemergence tests involve spraying a liquid formulation of the compound onto seedling plants of the above species.
(§3) The soil used in the tests is a prepared horticultural loam.
(§4) The formulations used in the tests are prepared from solutions of the test compounds in acetone containing 0.4% by weight of an alkylphenol/ethylene oxide condensate available under the trademark TRITON X-155. These acetone solutions are diluted with water and the resulting formulations applied at dosage levels corresponding to 1000 g of active material per hectare in a volume equivalent to 900 litres per hectare.
(§5) In the preemergence tests, untreated sown soil, and in the postemergence tests, untreated soil bearing seedling plants, are used as controls.
(§6) The herbicidal effects of the test compounds are assessed visually twenty days after spraying the foliage and the soil and are recorded on a 0-9 scale. A rating of 0 indicates growth as untreated control, a rating of 9 indicates death. An increase of 1 unit on the linear scale approximates to an 11% increase in the level of effect.

Beta vulgaris [2] = experiment: as above; parameters: key: A rating of 0 indicates growth as untreated control; a rating of 9 indicates death; details: pre; 1000 g/ha; assessed visually twenty days after spraying
Protocol: as §1, §2, §3, §4, §5, §6

Echinochloa crus-galli [3] = experiment: as above; parameters: key: A rating of 0 indicates growth as untreated control; a rating of 9 indicates death; details: pre; 1000 g/ha; assessed visually twenty days after spraying
Protocol: as §1, §2, §3, §4, §5, §6

Glycine max [4] = experiment: as above; parameters: key: A rating of 0 indicates growth as untreated control; a rating of 9 indicates death; details: pre; 1000 g/ha; assessed visually twenty days after spraying
Protocol: as §1, §2, §3, §4, §5, §6

Linum usitatissimum [5] = experiment: as above; parameters: key: A rating of 0 indicates growth as untreated control; a rating of 9 indicates death; details: pre; 1000 g/ha; assessed visually twenty days after spraying
Protocol: as §1, §2, §3, §4, §5, §6

Oryza sativa [6] = experiment: as above; parameters: key: A rating of 0 indicates growth as untreated control; a rating of 9 indicates death; details: pre; 1000 g/ha; assessed visually twenty days after spraying
Protocol: as §1, §2, §3, §4, §5, §6

Sinapsis alba [7] = experiment: as above; parameters: key: A rating of 0 indicates growth as untreated control; a rating of 9 indicates death; details: pre; 1000 g/ha; assessed visually twenty days after spraying
Protocol: as §1, §2, §3, §4, §5, §6

Zea mays [8] = experiment: as above; parameters: key: A rating of 0 indicates growth as untreated control; a rating of 9 indicates death; details: pre; 1000 g/ha; assessed visually twenty days after spraying
Protocol: as §1, §2, §3, §4, §5, §6

Glycine max [9] = experiment: Herbicidal activity, postemergence test (Example 66); details: post; 1000 g/ha; assessed visually twenty days after spraying
Protocol: as §1, §2, §3, §4, §5, §6

Avena fatua [10] = experiment: as above; parameters: key: A rating of 0 indicates growth as untreated control; a rating of 9 indicates death; details: post; 1000 g/ha; assessed visually twenty days after spraying
Protocol: as §1, §2, §3, §4, §5, §6

Beta vulgaris [11] = experiment: as above; parameters: key: A rating of 0 indicates growth as untreated control; a rating of 9 indicates death; details: post; 1000 g/ha; assessed visually twenty days after spraying
Protocol: as §1, §2, §3, §4, §5, §6

Echinochloa crus-galli [12] = experiment: as above; parameters: key: A rating of 0 indicates growth as untreated control; a rating of 9 indicates death; details: post; 1000 g/ha; assessed visually twenty days after spraying
Protocol: as §1, §2, §3, §4, §5, §6

Linum usitatissimum [13] = experiment: as above; parameters: key: A rating of 0 indicates growth as untreated control; a rating of 9 indicates death; details: post; 1000 g/ha; assessed visually twenty days after spraying
Protocol: as §1, §2, §3, §4, §5, §6

Oryza sativa [14] = experiment: as above; parameters: key: A rating of 0 indicates growth as untreated control; a rating of 9 indicates death; details: post; 1000 g/ha; assessed visually twenty days after spraying
Protocol: as §1, §2, §3, §4, §5, §6

Sinapsis alba [15] = experiment: as above; parameters: key: A rating of 0 indicates growth as untreated control; a rating of 9 indicates death; details: post; 1000 g/ha; assessed visually twenty days after spraying
Protocol: as §1, §2, §3, §4, §5, §6

Zea mays [16] = experiment: as above; parameters: key: A rating of 0 indicates growth as untreated control; a rating of 9 indicates death; details: post; 1000 g/ha; assessed visually twenty days after spraying
Protocol: as §1, §2, §3, §4, §5, §6

Triticum aestivum [17] = experiment: Preemergence herbicidal activity (Example 67); parameters: herbicide rating, TRZAW: scale not given here; details: pre, 800 g/ha
Method in brief: (§7)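 Soil surface of seeded cups sprayed with compound (800g/ha, 400 L/ha volume) from acetone/0.5% TRITON X-155 solutions diluted in water. Herbicidal effect scored on a rating scale roughly 1-3 weeks later, plants held in greenhouse.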

Hordeum vulgare [18] = experiment: Preemergence herbicidal activity (Example 67); parameters: herbicide rating, HORVW: scale not given here; details: pre, 800 g/ha
Method in brief: as §7

Alopecurus myosuroides [19] = experiment: Preemergence herbicidal activity (Example 67); parameters: herbicide rating, ALOMY: scale not given here; details: pre, 800 g/ha
Method in brief: as §7

Setaria viridis [20] = experiment: Preemergence herbicidal activity (Example 67); parameters: herbicide rating, SETVI: scale not given here; details: pre, 800 g/ha
Method in brief: as §7

Abutilon theophrasti [21] = experiment: Preemergence herbicidal activity (Example 67); details: pre, 800 g/ha
Method in brief: as §7

Amaranthus retroflexus [22] = experiment: Preemergence herbicidal activity (Example 67); details: pre, 800 g/ha
Method in brief: as §7

Chenopodium album [23] = experiment: Preemergence herbicidal activity (Example 67); details: pre, 800 g/ha
Method in brief: as §7

Galium aparine [24] = experiment: Preemergence herbicidal activity (Example 67); details: pre, 800 g/ha
Method in brief: as §7

Helianthus annuus [25] = experiment: Preemergence herbicidal activity (Example 67); details: pre, 800 g/ha
Method in brief: as §7

Ipomoea hederacea [26] = experiment: Preemergence herbicidal activity (Example 67); details: pre, 800 g/ha
Method in brief: as §7

Veronica persica [27] = experiment: Preemergence herbicidal activity (Example 67); details: pre, 800 g/ha
Method in brief: as §7

Zea mays [28] = experiment: Preemergence herbicidal activity (Example 67); details: pre, 800 g/ha
Method in brief: as §7

Abutilon theophrasti [29] = experiment: Postemergence herbicidal activity (Example 67); details: pos, 800 g/ha
Method in brief: (§8)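 Rating followed 10–21 days of greenhouse growth after treatment. Treatment was a single spray at a dose of 800 g/ha (400 L/ha spray volume) applied to plants 3–6 weeks old, using a water-diluted acetone solution containing 0.5% Triton X-155.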

Alopecurus myosuroides [30] = experiment: Postemergence herbicidal activity (Example 67); details: pos, 800 g/ha
Method in brief: as §8

Amaranthus retroflexus [31] = experiment: Postemergence herbicidal activity (Example 67); details: pos, 800 g/ha
Method in brief: as §8

Chenopodium album [32] = experiment: Postemergence herbicidal activity (Example 67); details: pos, 800 g/ha
Method in brief: as §8

Galium aparine [33] = experiment: Postemergence herbicidal activity (Example 67); details: pos, 800 g/ha
Method in brief: as §8

Helianthus annuus [34] = experiment: Postemergence herbicidal activity (Example 67); details: pos, 800 g/ha
Method in brief: as §8

Hordeum vulgare [35] = experiment: Postemergence herbicidal activity (Example 67); details: pos, 800 g/ha
Method in brief: as §8

Ipomoea hederacea [36] = experiment: Postemergence herbicidal activity (Example 67); details: pos, 800 g/ha
Method in brief: as §8

Setaria viridis [37] = experiment: Postemergence herbicidal activity (Example 67); details: pos, 800 g/ha
Method in brief: as §8

Triticum aestivum [38] = experiment: Postemergence herbicidal activity (Example 67); details: pos, 800 g/ha
Method in brief: as §8

Veronica persica [39] = experiment: Postemergence herbicidal activity (Example 67); details: pos, 800 g/ha
Method in brief: as §8

Zea mays [40] = experiment: Postemergence herbicidal activity (Example 67); details: pos, 800 g/ha
Method in brief: as §8

[41] = rated about 1-3 weeks after treatment

CC(NC(=O)c1nsc(-c2ccccc2)n1)c1cccs1 (racemic) [Example 22]
3: herbicidal effects on a 0-9 scale, SINAL (Sinapsis alba [7])
1: herbicidal effects on a 0-9 scale, ZEAMX (Zea mays [8])
2: herbicidal effects on a 0-9 scale, BEAVA (Beta vulgaris [2]) | herbicidal effects on a 0-9 scale, ECHCG (Echinochloa crus-galli [3]) | herbicidal effects on a 0-9 scale, ORYSA (Oryza sativa [14]) | herbicidal effects on a 0-9 scale, ZEAMX (Zea mays [16])
0: herbicidal effects on a 0-9 scale, AVEFA (Avena fatua [1]) | herbicidal effects on a 0-9 scale, GLXMA (Glycine max [4]) | herbicidal effects on a 0-9 scale, LIUUT (Linum usitatissimum [5]) | herbicidal effects on a 0-9 scale, ORYSA (Oryza sativa [6])
5: herbicidal effects on a 0-9 scale, ECHCG (Echinochloa crus-galli [12])
9: herbicidal effects on a 0-9 scale, BEAVA (Beta vulgaris [11])
4: herbicidal effects on a 0-9 scale, AVEFA (Avena fatua [10])
7: herbicidal effects on a 0-9 scale, SINAL (Sinapsis alba [15])
6: herbicidal effects on a 0-9 scale, GLXMA (Glycine max [9]) | herbicidal effects on a 0-9 scale, LIUUT (Linum usitatissimum [13])

O=C(NCc1cccs1)c1nc(-c2ccccc2F)ns1 [Example 50]
3 (16-29%): ALO MY rating (Alopecurus myosuroides [19]) | CHE AL rating (Chenopodium album [32]) | HEL AN rating (Helianthus annuus [34])
2 (6-15%): GAL AP rating (Galium aparine [33]) | HOR VW rating (Hordeum vulgare [35])
1 (1-5%): HOR VW rating (Hordeum vulgare [18]) | TRZ AW rating (Triticum aestivum [38])
5 (45-64%): SET VI rating (Setaria viridis [37])
0: TRZ AW rating (Triticum aestivum [17]) | SET VI rating (Setaria viridis [20]) | ABU TH rating (Abutilon theophrasti [21]) | AMA RE rating (Amaranthus retroflexus [22]) | CHE AL rating (Chenopodium album [23]) | GAL AP rating (Galium aparine [24]) | HEL AN rating (Helianthus annuus [25]) | IPO HE rating (Ipomoea hederacea [26]) | VER PE rating (Veronica persica [27]) | ZEA MX rating (Zea mays [28]) | ABU TH rating (Abutilon theophrasti [29]) | ALO MY rating (Alopecurus myosuroides [30]) | AMA RE rating (Amaranthus retroflexus [31]) | IPO HE rating (Ipomoea hederacea [36]) | VER PE rating (Veronica persica [39]) | ZEA MX rating (Zea mays [40])

CC(NC(=O)c1nc(C=Cc2ccccc2)ns1)c1cccs1 (racemic) [Example 29]
3 (16-29%): herbicide rating, CHEAL (Chenopodium album [32]; rated after 10-21 days)
0: herbicide rating, TRZAW (Triticum aestivum [17]; [41]) | herbicide rating, HORVW (Hordeum vulgare [18]; [41]) | herbicide rating, ALOMY (Alopecurus myosuroides [19]; [41]) | herbicide rating, SETVI (Setaria viridis [20]; [41]) | herbicide rating, ABUTH (Abutilon theophrasti [21]; [41]) | herbicide rating, AMARE (Amaranthus retroflexus [22]; [41]) | herbicide rating, GALAP (Galium aparine [24]; [41]) | herbicide rating, HELAN (Helianthus annuus [25]; [41]) | herbicide rating, IPOHE (Ipomoea hederacea [26]; [41]) | herbicide rating, VERPE (Veronica persica [27]; [41]) | herbicide rating, ZEAMX (Zea mays [28]; [41]) | herbicide rating, HORVW (Hordeum vulgare [35]; rated after 10-21 days) | herbicide rating, TRZAW (Triticum aestivum [38]; rated after 10-21 days) | herbicide rating, VERPE (Veronica persica [39]; rated after 10-21 days) | herbicide rating, ZEAMX (Zea mays [40]; rated after 10-21 days)
4 (30-44%): herbicide rating, CHEAL (Chenopodium album [23]; [41]) | herbicide rating, HELAN (Helianthus annuus [34]; rated after 10-21 days) | herbicide rating, IPOHE (Ipomoea hederacea [36]; rated after 10-21 days) | herbicide rating, SETVI (Setaria viridis [37]; rated after 10-21 days)
2 (6-15%): herbicide rating, ALOMY (Alopecurus myosuroides [30]; rated after 10-21 days)
1 (1-5%): herbicide rating, ABUTH (Abutilon theophrasti [29]; rated after 10-21 days) | herbicide rating, AMARE (Amaranthus retroflexus [31]; rated after 10-21 days) | herbicide rating, GALAP (Galium aparine [33]; rated after 10-21 days)
